Source: ChEMBL document CHEMBL4725222, “Advances in the Development of Phosphodiesterase-4 Inhibitors” (J Med Chem, 2020)

Assays:
[1] = tested on: Homo sapiens; test: Inhibition of late allergic response in atopic asthmatic patient assessed as reduction in weighted mean FEV1 level at 87.5 ug administered once daily via inhalation for 7 days followed by allergen challenge relative to placebo; format: functional; conditions: dose 87.5 µg; time 7 day
[2] = tested on: Homo sapiens; test: Inhibition of early allergic response in atopic asthmatic patient assessed as reduction in weighted mean FEV1 level at 87.5 ug administered once daily via inhalation for 7 days followed by allergen challenge relative to placebo; format: functional; conditions: dose 87.5 µg; time 7 day
[3] = molecular target: Phosphodiesterase 4 (Homo sapiens, UniProt P27815+Q08499+Q07343+Q08493); test: Inhibition of human PDE4 expressed in Saccharomyces cerevisiae preincubated for 30 mins followed by cAMP substrate addition
[4] = tested on: Homo sapiens; test: Inhibition of early allergic response in atopic asthmatic patient assessed as reduction in minimum FEV1 level at 87.5 ug administered once daily via inhalation for 7 days followed by allergen challenge relative to placebo; format: functional; conditions: dose 87.5 µg; time 7 day
[5] = tested on: Homo sapiens; test: Inhibition of late allergic response in atopic asthmatic patient assessed as reduction in minimum FEV1 level at 87.5 ug administered once daily via inhalation for 7 days followed by allergen challenge relative to placebo; format: functional; conditions: dose 87.5 µg; time 7 day

IC50 [3]: 3.2 pM
SMILES: COc1cccc(Nc2c(C(N)=O)cnc3c(C)cc(S(=O)(=O)c4cccc(C(=O)N(C)C)c4)cc23)c1 [GSK-256066]
inhibition (INH) [1]: 34.3% | inhibition (INH) [2]: 57.2% | inhibition (INH) [4]: 40.9% | inhibition (INH) [5]: 26.2%
